From paper PMC11820915, “Identification of HIV-1 Reverse Transcriptase-Associated Ribonuclease H Inhibitors Based on 2-Hydroxy-1,4-naphthoquinone Mannich Bases” (Molecules, 2025) come the findings set out here.

In series [1] the test system is HIV-1. Kind of series: HIV-1 infectivity in HelaP4 cells (CPRG assay). The class given is cell-based. The conditions noted are these: for Reduction of HIV-1 infectivity: at highest non-toxic concentration, 48 h.
Series [2] addresses HIV-1 RT-associated RNase H (Human immunodeficiency virus type 1 group M subtype B, UniProt P03366). Kind of series: HIV-1 RT-associated RNase H inhibition assay. It is filed as biochemical. The arrangement: 50 nM of HIV-1 RT. The conditions noted are these: for IC50: 50 nM HIV-1 RT, 15 min at 37 °C, triplicate. The method, then: HIV-1 RT-associated RNase H inhibition assays were carried out in a 384 multiwell format, in 30 µL reaction volume containing 50 mM Tris–HCl buffer pH 7.8, 6 mM MgCl2, 1 mM dithiothreitol (DTT), 80 mM KCl, 0.25 µM hybrid RNA/DNA 5’-[…]-Fluorescin-3’ 5’-Dabcyl-[…]-3’ increasing concentrations of inhibitor, whose dilutions were made in DMSO, and 50 nM of HIV-1 RT. The reaction mixture was incubated for 15 min at 37 °C and products were measured with a multilabel counter plate reader VictorNivo5 (PerkinElmer, Waltham, MA, USA) equipped with filters for 490/528 nm. IC50, the concentration able to inhibit 50% of enzymatic activity, was calculated by non-linear regression curve fit using Prisme v9.0. All experiments were conducted in triplicate.

Series [3] deals with HIV-1. The class given is cell-based. The conditions noted are these: MT4 cells, FACS.
Another series concerns HelaP4 cells. The series can be described thus: Toxicity to HelaP4 cells (MTT assay). It is filed as cell-based. The method, then:
HelaP4 cells (10^4 cells/well) were infected with viruses (7.5 ng p24) in the presence of increasing concentration of compounds. Cells were incubated for 48 h before analysis. β-Galactosidase is under the control of the HIV-1 LTR. Infectivity is correlated with the number of infected cells. Cells were lysed for 10 min at 37 °C using 80 µL of lysis buffer (Na2HPO4 60 mM, NaH2PO4 60 mM, KCl 10 mM, MgSO4 10 mM, EDTA 25 mM, and NP-40 0.125%). After lysis, 170 µL of CPRG buffer (phosphate buffer 100 mM, pH 7.4, MgCl2 100 mM, and CPRG 20 mM) was added to each well. The plates were incubated at 37 °C until the color changed to dark red. Finally, a plate reader was used to read the absorbance at 572 nm. The MTT assay varies based on NAD(P)H-dependent cellular oxidoreductase enzymes of viable cells reducing the yellow tetrazolium salt MTT (3-(4,5-dimethylthiazol2-yl)-2,5-diphenyltetrazolium bromide). Spectrophotometric measurement can be used to quantify the insoluble purple formazan product that is produced by this reaction. An amount of 10 µL of MTT reagent (7.5 mg/mL in PBS, pH 7.4) was added to each well of the microtiter plate before incubating at 37 °C for 2 h. After 2 h of incubation, 100 µL of MTT lysis buffer (SDS 10%, HCl 0.01 N, pH 4.7) was added and the resulting optical density (OD) readings were measured at 572 nm.
A general note: Formazan colour is commonly taken as a measure of viable cells.

The next series deals with SARS-CoV-2. Kind of series: microbe, parasite or virus in culture. The class given is cell-based.
A short description of a further series: in vitro. The conditions noted are these: African green monkey.
The mark [4] stands for this setting: read-out: IC50, HIV-1 RT-associated RNase H activity.
Setting [5] is: IC50, HIV-1 RT-associated RNase H activity.

Where “and” joins values, the source holds several entries; their conditions need not be identical. Identical values can stand only once. Like-named read-outs stand apart in the source and are kept apart here.

The IC50 is the concentration needed to halve the response being measured. With `O=C1C(O)=C(C(NCc2ccccc2)c2cc(Br)cc(Br)c2O)C(=O)c2ccccc21` (centres unmarked) [Compound 2p, 3-[(Benzylamino)(3,5-dibromo-2-hydroxyphenyl)methyl]-2-hydroxy-1,4-naphthoquinone], in the series on HIV-1 [1], the “Reduction of HIV-1 infectivity” value is 70%. Also, in series [2], the “HIV-1 RNase H inhibitory activity (in words)” value is recorded as “moderate activities”. The IC50 in series [2] (setting [4]) is 19.6 ± 3.4 µM. Further, the “Antiviral effect, reduction of GFP fluorescence expression (in words)” value (from here on “Antiviral effect, reduction”) in the series with HIV-1 [3] is “no or weak antiviral effects”.
With `O=C1C(O)=C(C(Nc2ccccn2)c2ccccc2O)C(=O)c2ccccc21` (centres unmarked) [Compound 2h], the “HIV-1 RNase H inhibitory activity (in words)” value in series [2] is on record as “moderate activity”. In addition, the IC50 in series [2] (setting [4]) is 20.8 ± 0.2 µM.
In the case of `CCCCCCCCCCCCCCNC(C1=C(O)C(=O)c2ccccc2C1=O)c1ccccn1` (centres unmarked) [Compound 1c], in series [2] (setting [4]), the concentration for half-maximal inhibition (IC50) is 4 to 4.4 µM and 4 µM.
`CCCCCCCCCCCCCCNC(C1=C(O)C(=O)c2ccccc2C1=O)c1ccccc1F` (centres unmarked) [Compound 2b, 3-[(Tetradecylamino)(2-fluorophenyl)methyl]-2-hydroxy-1,4-naphthoquinone]: the “Reduction of HIV-1 infectivity” value with HIV-1 [1] is 75%. For the same compound, the IC50 in series [2] (setting [4]) was 15 ± 5.1 µM. Besides, in the series with HIV-1 [3], the “Antiviral effect, reduction” value is on record as “no or weak antiviral effects”.
On to `O=C1C(O)=C(C(NCc2ccc(F)c(F)c2)c2ccccn2)C(=O)c2ccccc21` (centres unmarked) [Compound 1f], for which, in series [2] (setting [4]), the IC50 is 17.4 ± 4.1 µM.
The same measure, in the same setting: to `CCCCCCCCCCCCCCCCNC(C1=C(O)C(=O)c2ccccc2C1=O)c1cc(Br)cc(Br)c1O` (centres unmarked) [Compound 2o] belongs 32.5 ± 10.5 µM.
Turning to `CCCCCCCCCCCCCCCCNC(C1=C(O)C(=O)c2ccccc2C1=O)c1ccccc1O` (centres unmarked) [Compound 2f], in the series with HelaP4 cells, the “Cytotoxicity (in words)” value is recorded as “displayed cytotoxicity”. The same compound registered an IC50 in series [2] (setting [5]) of 7 ± 0.9 µM.
For the compound `CCCCCCCCCCCCCCNC(C1=C(O)C(=O)c2ccccc2C1=O)c1cc(Br)cc(Br)c1O` (centres unmarked) [Compound 2n, 3-[(Tetradecylamino)(3,5-dibromo-2-hydroxyphenyl)methyl]-2-hydroxy-1,4-naphthoquinone], the IC50 in series [2] (setting [4]) came out at 105 ± 10.6 µM.
As for `CCCCCCCCCCCCCCNC(C1=C(O)C(=O)c2ccccc2C1=O)c1ccccc1O` (centres unmarked) [Compound 2e, 3-[(Tetradecylamino)(2-hydroxyphenyl)methyl]-2-hydroxy-1,4-naphthoquinone], the “Antiviral activity against HIV-1 (in words)” value in the series with HIV-1 [1] was “no antiviral activity”. In series [2] (setting [4]), the IC50 was 8.5 ± 1.6 µM.
On to `CCCCCCCCCCCCNC(C1=C(O)C(=O)c2ccccc2C1=O)c1cccc(Br)n1` (centres unmarked) [Compound 1g, 3-[(Dodecylamino)(6-bromo-2-pyridyl)methyl]-2-hydroxy-1,4-naphthoquinone], for which the IC50 in series [2] (setting [4]) is greater than 100 µM.
For `CCCCCCCCCCCCNC(C1=C(O)C(=O)c2ccccc2C1=O)c1cc(Cl)cc(Cl)c1O` (centres unmarked) [Compound 2i], the “Reduction of HIV-1 infectivity” value in the series with HIV-1 [1] is 65%. In addition, the IC50 in series [2] (setting [4]) stood at 4.7 ± 1.6 µM. Further, the “Antiviral effect, reduction” value in the series with HIV-1 [3] is on record as “no or weak antiviral effects”.
For the compound `CCCCCCCNC(C1=C(O)C(=O)c2ccccc2C1=O)c1ccccn1` (centres unmarked) [Compound 1a], the IC50 in series [2] (setting [4]) turned out to be 31.2 ± 6.5 µM.
On to `CCCCCCCCCCCCCCNC(C1=C(O)C(=O)c2ccccc2C1=O)c1ccccc1Cl` (centres unmarked) [Compound 2c, 3-[(Tetradecylamino)(2-chlorophenyl)methyl]-2-hydroxy-1,4-naphthoquinone], for which, in the series with HIV-1 [1], the “Reduction of HIV-1 infectivity” value is on record as 46%. For the same compound, in series [2] (setting [4]), the IC50 is 7.3 ± 4.7 µM. For the same compound, the “Antiviral effect, reduction” value in the series with HIV-1 [3] was “no or weak antiviral effects”.
As to `CCCCCCCCCCCCNC(C1=C(O)C(=O)c2ccccc2C1=O)c1cc(Br)cc(Br)c1O` (centres unmarked) [Compound 2m], the “Antiviral activity against HIV-1 (in words)” value in the series on HIV-1 [1] is on record as “no antiviral activity”. Moreover, the IC50 in series [2] (setting [4]) was determined as 7.1 ± 1.1 µM.
As for `CCCCCCCCCCCCCCNC(C1=C(O)C(=O)c2ccccc2C1=O)c1cc(Cl)cc(Cl)c1O` (centres unmarked) [Compound 2j, 3-[(Tetradecylamino)(3,5-dichloro-2-hydroxyphenyl)methyl]-2-hydroxy-1,4-naphthoquinone], in series [2] (setting [4]), the IC50 came to 43.7 ± 3.5 µM.
The same measure, in the same setting: the result for `CCCCCCCCCCCCCCCCNC(C1=C(O)C(=O)c2ccccc2C1=O)c1ccccn1` (centres unmarked) [Compound 1d] reads 10.7 ± 4.1 µM.
Regarding `CCCCCCCCCCCCNC(C1=C(O)C(=O)c2ccccc2C1=O)c1ccccn1` (centres unmarked) [Compound 1b], in series [2] (setting [4]), the IC50 is 4 to 4.4 µM and 4.4 µM.
On to `O=C1C(O)=C(C(NCc2ccccc2)c2cccc(Br)n2)C(=O)c2ccccc21` (centres unmarked) [Compound 1j, 3-[(Benzylamino)(6-bromo-2-pyridyl)methyl]-2-hydroxy-1,4-naphthoquinone], for which, in series [2] (setting [4]), the IC50 was greater than 100 µM.
What is called EC50 is the midpoint of the concentration-response curve. For the compound `O=C1C(O)=C(C(NCc2ccccc2)c2ccccn2)C(=O)c2ccccc21` (centres unmarked) [Compound 1e], in the series on SARS-CoV-2, the “SI, selectivity index CC50/EC50” value is given as 3.15. In addition, the EC50 with SARS-CoV-2 (Severe acute respiratory syndrome coronavirus 2, VEROE6-EGFP cells, in the presence of 2 µM CP-100356, read-out: EC50 for viral replication inhibition) is 11.2 ± 2.1 µM. The “Inhibitory activity against SARS-CoV-2 replication (in words)” value with SARS-CoV-2 (VEROE6-EGFP cells, with CP-100356) was “moderate inhibitory activity”. The compound also displayed a CC50 in “in vitro” of 35.3 ± 1.3 µM. In addition, the IC50 in series [2] (setting [5]) is 2.8 to 3.1 µM and 3.1 µM.
Take `CCCCCCCCCCCCCCNC(C1=C(O)C(=O)c2ccccc2C1=O)c1cccc(Br)n1` (centres unmarked) [Compound 1h, 3-[(Tetradecylamino)(6-bromo-2-pyridyl)methyl]-2-hydroxy-1,4-naphthoquinone]: the IC50 in series [2] (setting [4]) is greater than 100 µM.
With `O=C1C(O)=C(C(NCc2ccccc2)c2ccccc2O)C(=O)c2ccccc21` (centres unmarked) [Compound 2g], in series [2], the “HIV-1 RNase H inhibitory activity (in words)” value was “inactive”. The half-maximal inhibitory concentration (IC50) in series [2] (setting [4]) was greater than 100 µM.
In the case of `O=C1C(O)=C(C(NCc2ccccc2)c2cc(Cl)cc(Cl)c2O)C(=O)c2ccccc21` (centres unmarked) [Compound 2l, 3-[(Benzylamino)(3,5-dichloro-2-hydroxyphenyl)methyl]-2-hydroxy-1,4-naphthoquinone], the “Reduction of HIV-1 infectivity” value in the series on HIV-1 [1] is 48%. In addition, the “HIV-1 RNase H inhibitory activity (in words)” value in series [2] is reported as “moderate activities”. The IC50 in series [2] (setting [4]) is 12.7 ± 3.4 µM. Besides, the “Antiviral effect, reduction” value in the series with HIV-1 [3] is listed as “no or weak antiviral effects”.
`CCCCCCCCCCCCCCNC(C1=C(O)C(=O)c2ccccc2C1=O)c1ccccc1` (centres unmarked) [Compound 2a]: the IC50 in series [2] (setting [4]) stood at 21.5 ± 0.9 µM.
Same read-out and setting: to `CCCCCCCCCCCCCCCCNC(C1=C(O)C(=O)c2ccccc2C1=O)c1cccc(Br)n1` (centres unmarked) [Compound 1i, 3-[(Hexadecylamino)(6-bromo-2-pyridyl)methyl]-2-hydroxy-1,4-naphthoquinone] belongs 78.6 ± 11.5 µM.
Turning to `CCCCCCCCCCCCNC(C1=C(O)C(=O)c2ccccc2C1=O)c1ccccc1O` (centres unmarked) [Compound 2d], the “Cytotoxicity (in words)” value in the series with HelaP4 cells is “displayed cytotoxicity”. The compound also yielded an IC50 in series [2] (setting [5]) of 17.6 ± 3.8 µM.
